Series [1] concerns the target Mitogen-activated protein kinase 8 (Homo sapiens, UniProt P45983). Nature of the series: Inhibition of N-terminal GST-tagged recombinant full length human JNK1 expressed in baculovirus infected Sf9 insect cells using IPTTPITTTYFFFKKK as substrate at 1 uM incubated for 60 mins in the presence of ATP by ADP-Glo reagent based luminescence assay relative to control. In general terms: ADP-Glo turns the ADP formed in a reaction into a luminescent signal.

The target in series [2] is T1, Mitogen-activated protein kinase 9 (Homo sapiens, UniProt P45984). Nature of the series: Inhibition of N-terminal GST-tagged recombinant full length human JNK2 expressed in baculovirus infected Sf9 cells using IPTTPITTTYFFFKKK as substrate at 1 uM incubated for 60 mins in the presence of ATP by ADP-Glo reagent based luminescence assay relative to control.
T1 sequence (P45984 whole entry, looked up): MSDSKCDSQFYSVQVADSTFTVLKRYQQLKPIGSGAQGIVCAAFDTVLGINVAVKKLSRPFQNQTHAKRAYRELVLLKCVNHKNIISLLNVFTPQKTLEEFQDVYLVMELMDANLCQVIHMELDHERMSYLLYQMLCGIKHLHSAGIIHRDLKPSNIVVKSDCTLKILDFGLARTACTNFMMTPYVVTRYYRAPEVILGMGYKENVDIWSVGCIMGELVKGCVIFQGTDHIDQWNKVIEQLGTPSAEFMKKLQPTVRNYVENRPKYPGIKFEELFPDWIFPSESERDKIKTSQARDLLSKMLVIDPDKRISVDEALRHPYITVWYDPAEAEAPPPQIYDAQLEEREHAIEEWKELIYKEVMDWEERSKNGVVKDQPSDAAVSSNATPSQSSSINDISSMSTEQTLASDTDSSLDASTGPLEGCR
Series [3] concerns the target T1, Mitogen-activated protein kinase 9. Nature of the series: Inhibition of N-terminal GST-tagged recombinant full length human JNK2 expressed in baculovirus infected Sf9 cells using IPTTPITTTYFFFKKK as substrate at 0.1 uM incubated for 60 mins in the presence of ATP by ADP-Glo reagent based luminescence assay relative to control.
Series [4] has as its target T2, Mitogen-activated protein kinase 10 (Homo sapiens, UniProt P53779). Nature of the series: Inhibition of N-terminal GST-tagged recombinant full length human JNK3 expressed in baculovirus infected Sf9 cells using IPTTPITTTYFFFKKK as substrate at 1 uM incubated for 60 mins in the presence of ATP by ADP-Glo reagent based luminescence assay relative to control.
Series [5] concerns the target T2, Mitogen-activated protein kinase 10. Nature of the series: Inhibition of N-terminal GST-tagged recombinant full length human JNK3 expressed in baculovirus infected Sf9 cells using IPTTPITTTYFFFKKK as substrate at 0.1 uM incubated for 60 mins in the presence of ATP by ADP-Glo reagent based luminescence assay relative to control.
The species named for series [6] is Homo sapiens. In words: Selectivity ratio of IC50 for inhibition of N-terminal GST-tagged recombinant full length human JNK2 expressed in baculovirus infected Sf9 cells to IC50 for inhibition of N-terminal GST-tagged recombinant full length human JNK1 expressed in baculovirus infected Sf9 insect cells.
In series [7] the target is Mitogen-activated protein kinase 1 (Homo sapiens) (UniProt P28482). Nature of the series: Inhibition of ERK2 (unknown origin) at 1 uM preincubated for 10 mins followed by substrate addition and measured after 60 mins in the presence of ATP by ADP-Glo reagent based luminescence assay relative to control. To be noted: time 70.0 min.
Mitogen-activated protein kinase 1 (Homo sapiens), sequence (P28482 whole entry): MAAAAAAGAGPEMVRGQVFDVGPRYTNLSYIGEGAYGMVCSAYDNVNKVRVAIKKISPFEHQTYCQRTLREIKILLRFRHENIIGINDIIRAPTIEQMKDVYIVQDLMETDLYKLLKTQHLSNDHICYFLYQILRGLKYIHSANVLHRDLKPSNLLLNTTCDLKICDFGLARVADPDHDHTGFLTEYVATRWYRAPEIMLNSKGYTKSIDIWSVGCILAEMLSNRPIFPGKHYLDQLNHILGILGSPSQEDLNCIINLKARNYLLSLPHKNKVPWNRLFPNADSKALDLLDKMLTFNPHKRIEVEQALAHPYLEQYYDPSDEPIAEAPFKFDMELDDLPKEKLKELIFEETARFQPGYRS
Series [8] addresses T3, Dual specificity mitogen-activated protein kinase kinase 4 (Homo sapiens) (UniProt P45985).
T3 sequence (whole entry): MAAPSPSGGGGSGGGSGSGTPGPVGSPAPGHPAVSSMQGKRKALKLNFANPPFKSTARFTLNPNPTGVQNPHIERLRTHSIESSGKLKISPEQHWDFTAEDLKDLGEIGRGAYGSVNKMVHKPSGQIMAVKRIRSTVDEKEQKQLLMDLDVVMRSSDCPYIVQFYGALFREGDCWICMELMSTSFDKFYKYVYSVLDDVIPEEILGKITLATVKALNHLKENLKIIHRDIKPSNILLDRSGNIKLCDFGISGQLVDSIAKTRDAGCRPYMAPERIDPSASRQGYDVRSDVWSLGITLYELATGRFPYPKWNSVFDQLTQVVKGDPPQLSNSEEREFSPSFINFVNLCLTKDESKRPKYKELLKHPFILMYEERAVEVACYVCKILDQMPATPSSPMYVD
Nature of the series: Inhibition of MAP2K4 (unknown origin) at 1 uM preincubated for 10 mins followed by substrate addition and measured after 60 mins in the presence of ATP by ADP-Glo reagent based luminescence assay relative to control. The conditions noted are these: time 70.0 min.

The target of series [9] is Dual specificity mitogen-activated protein kinase kinase 1 (Homo sapiens) (UniProt Q02750). Nature of the series: Inhibition of MAP2K1 (unknown origin) at 1 uM preincubated for 10 mins followed by substrate addition and measured after 60 mins in the presence of ATP by ADP-Glo reagent based luminescence assay relative to control. To be noted: time 70.0 min.
Dual specificity mitogen-activated protein kinase kinase 1 (Homo sapiens), sequence (Q02750 whole entry): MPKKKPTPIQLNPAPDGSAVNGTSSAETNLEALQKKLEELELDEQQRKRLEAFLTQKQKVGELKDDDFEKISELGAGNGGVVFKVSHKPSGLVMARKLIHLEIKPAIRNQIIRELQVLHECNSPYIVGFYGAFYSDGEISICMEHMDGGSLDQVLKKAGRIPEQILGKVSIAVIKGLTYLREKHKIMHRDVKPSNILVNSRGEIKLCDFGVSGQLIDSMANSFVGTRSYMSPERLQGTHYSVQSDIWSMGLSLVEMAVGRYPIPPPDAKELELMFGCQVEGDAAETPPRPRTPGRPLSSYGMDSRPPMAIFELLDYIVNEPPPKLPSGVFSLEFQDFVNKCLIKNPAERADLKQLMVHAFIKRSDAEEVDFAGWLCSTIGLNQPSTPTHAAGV
Series [10] concerns the target Dual specificity mitogen-activated protein kinase kinase 2 (Homo sapiens) (UniProt P36507). In words: Inhibition of MAP2K2 (unknown origin) at 1 uM preincubated for 10 mins followed by substrate addition and measured after 60 mins in the presence of ATP by ADP-Glo reagent based luminescence assay relative to control. The conditions noted are these: time 70.0 min.
Series [11] concerns the target CDK2/Cyclin A2 (Homo sapiens) (UniProt P24941+P20248). Nature of the series: Inhibition of CDK2/Cyclin A2 (unknown origin) at 1 uM preincubated for 10 mins followed by substrate addition and measured after 60 mins in the presence of ATP by ADP-Glo reagent based luminescence assay relative to control. The conditions noted are these: time 70.0 min. It is filed as protein-complex assay.

For series [12], the target named is Cyclin-dependent kinase 2/cyclin E1 (Homo sapiens) (UniProt P24864+P24941). In words: Inhibition of CDK2/Cyclin E1 (unknown origin) at 1 uM preincubated for 10 mins followed by substrate addition and measured after 60 mins in the presence of ATP by ADP-Glo reagent based luminescence assay relative to control. To be noted: time 70.0 min. It is filed as protein-complex assay.

Series [13] addresses CDK4/Cyclin D3 (Homo sapiens) (UniProt P11802+P30281). Nature of the series: Inhibition of CDK4/Cyclin D3 (unknown origin) at 1 uM preincubated for 10 mins followed by substrate addition and measured after 60 mins in the presence of ATP by ADP-Glo reagent based luminescence assay. The conditions noted are these: time 70.0 min. It is filed as protein-complex assay.
Series [14] addresses c-Jun N-terminal kinase, JNK (Homo sapiens) (UniProt P45983+P53779+P45984). Nature of the series: Inhibition of JNK in human NCI-H1299 cells assessed as inhibition of anisomycin-activated c-Jun phosphorylation preincubated for 1 hrs followed by anisomycin activation for 1 hrs by Western blot analysis. The series is classed as cell-based. The conditions noted are these: dose 2-50 µM, time 2.0 hrs.

Series [15] has as its target c-Jun N-terminal kinase (Mus musculus) (UniProt Q91Y86+Q9WTU6+Q61831). Nature of the series: Inhibition of JNK in mouse NIH-3T3 cells assessed as inhibition of anisomycin-activated c-Jun phosphorylation preincubated for 1 hrs followed by anisomycin activation for 1 hrs by Western blot analysis. The series is classed as cell-based. The conditions noted are these: NIH3T3, dose 2-50 µM, time 2.0 hrs. In general terms: A western blot detects proteins with antibodies after separation by electrophoresis.

Series [16] in a line: Half-life in Sprague-Dawley rat at 5 mg/kg, iv by HPLC-UV analysis. It is filed as ADME, organism-based. To be noted: in vivo.
A short description of series [17]: Apparent volume of distribution in Sprague-Dawley rat at 5 mg/kg, iv by HPLC-UV analysis. It is filed as ADME, organism-based. To be noted: in vivo, read-out: Vz.
Series [18] in a line: Clearance in Sprague-Dawley rat at 75 mg/kg, po by HPLC-UV analysis. The series is classed as ADME, organism-based. To be noted: in vivo.
Series [19] relates to Mus musculus. Nature of the series: Anti-fibrotic activity in bleomycin-induced C57BL/6 mouse model of pulmonary fibrosis assessed as enhancement of lung respiratory function at 25 to 75 mg/kg, po administered twice a day for 3 weeks by spirometry analysis. The series is classed as functional, organism-based. To be noted: dose 25-75 mg/kg.
The test system of series [20] is Mus musculus. Nature of the series: Anti-fibrotic activity in bleomycin-induced C57BL/6 mouse model of pulmonary fibrosis assessed as restoration of respiratory function at 75 mg/kg, po administered twice a day for 3 weeks by spirometry analysis. The series is classed as functional.
The test system of series [21] is Mus musculus. In words: Anti-fibrotic activity in bleomycin-induced C57BL/6 mouse model of pulmonary fibrosis assessed as alleviation of neutrophil infiltration in lungs at 25 to 75 mg/kg, po administered twice a day for 3 weeks by H&E staining based analysis. It is filed as functional, organism-based. To be noted: dose 25-75 mg/kg.
Series [22] has as its system Mus musculus. Nature of the series: Anti-fibrotic activity in bleomycin-induced C57BL/6 mouse model of pulmonary fibrosis assessed as alleviation of alveolar collapse in lungs at 25 to 75 mg/kg, po administered twice a day for 3 weeks by H&E staining based analysis. The series is classed as functional, organism-based. To be noted: dose 25-75 mg/kg.

As usually defined, the inhibition is the relative decrease from the control value, in per cent. As usually defined, the half-life is how long it takes for the measured level to halve. A higher half-life goes with slow loss. Usually CL/F stands for clearance divided by bioavailability, as obtained after extravascular dosing.

Active and inactive are the calls of the source. The calls are words filed in the database; no cut-off is given here.

T2 sequence (P53779 whole entry): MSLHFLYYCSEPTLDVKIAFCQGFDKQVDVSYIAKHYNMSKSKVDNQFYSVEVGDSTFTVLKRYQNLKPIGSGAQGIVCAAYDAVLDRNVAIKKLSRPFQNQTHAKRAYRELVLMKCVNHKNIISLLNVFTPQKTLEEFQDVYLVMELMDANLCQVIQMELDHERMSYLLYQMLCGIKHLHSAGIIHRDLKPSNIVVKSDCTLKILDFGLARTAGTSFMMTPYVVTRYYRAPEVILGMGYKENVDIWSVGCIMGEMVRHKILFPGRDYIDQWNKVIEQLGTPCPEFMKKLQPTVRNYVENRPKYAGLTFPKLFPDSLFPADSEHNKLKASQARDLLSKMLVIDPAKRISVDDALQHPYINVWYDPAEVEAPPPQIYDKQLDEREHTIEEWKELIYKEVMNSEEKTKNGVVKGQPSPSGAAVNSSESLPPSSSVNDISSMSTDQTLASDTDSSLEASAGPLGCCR
Dual specificity mitogen-activated protein kinase kinase 2 (Homo sapiens), sequence (P36507 whole entry): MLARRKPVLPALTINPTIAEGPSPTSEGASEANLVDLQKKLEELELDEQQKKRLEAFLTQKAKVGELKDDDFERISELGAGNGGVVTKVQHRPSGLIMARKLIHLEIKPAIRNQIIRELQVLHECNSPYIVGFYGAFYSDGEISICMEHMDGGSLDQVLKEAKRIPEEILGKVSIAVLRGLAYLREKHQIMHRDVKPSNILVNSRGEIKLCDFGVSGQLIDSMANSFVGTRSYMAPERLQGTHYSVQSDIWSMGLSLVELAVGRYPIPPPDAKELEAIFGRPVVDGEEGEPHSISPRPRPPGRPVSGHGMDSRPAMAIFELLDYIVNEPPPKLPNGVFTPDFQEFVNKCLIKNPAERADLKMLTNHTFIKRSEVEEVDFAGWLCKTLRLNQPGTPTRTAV
c-Jun N-terminal kinase (Mus musculus), sequence (Q61831 whole entry, looked up): as the sequence (P53779 whole entry) above, with Q27H, Y32S, D267S, A345V, G412S, S432A counted along it
c-Jun N-terminal kinase (Mus musculus), sequence (Q91Y86 whole entry, looked up): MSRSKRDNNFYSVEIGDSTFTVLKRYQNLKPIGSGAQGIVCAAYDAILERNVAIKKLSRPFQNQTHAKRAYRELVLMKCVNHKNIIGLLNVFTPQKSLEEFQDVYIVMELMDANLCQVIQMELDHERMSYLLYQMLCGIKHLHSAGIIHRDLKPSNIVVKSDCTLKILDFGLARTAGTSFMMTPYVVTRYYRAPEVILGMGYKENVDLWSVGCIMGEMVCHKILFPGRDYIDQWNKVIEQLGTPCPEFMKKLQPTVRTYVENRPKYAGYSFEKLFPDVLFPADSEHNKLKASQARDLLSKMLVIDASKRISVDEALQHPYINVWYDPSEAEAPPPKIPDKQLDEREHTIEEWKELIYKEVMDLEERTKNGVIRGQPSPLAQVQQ
c-Jun N-terminal kinase (Mus musculus), sequence (Q9WTU6 whole entry, looked up): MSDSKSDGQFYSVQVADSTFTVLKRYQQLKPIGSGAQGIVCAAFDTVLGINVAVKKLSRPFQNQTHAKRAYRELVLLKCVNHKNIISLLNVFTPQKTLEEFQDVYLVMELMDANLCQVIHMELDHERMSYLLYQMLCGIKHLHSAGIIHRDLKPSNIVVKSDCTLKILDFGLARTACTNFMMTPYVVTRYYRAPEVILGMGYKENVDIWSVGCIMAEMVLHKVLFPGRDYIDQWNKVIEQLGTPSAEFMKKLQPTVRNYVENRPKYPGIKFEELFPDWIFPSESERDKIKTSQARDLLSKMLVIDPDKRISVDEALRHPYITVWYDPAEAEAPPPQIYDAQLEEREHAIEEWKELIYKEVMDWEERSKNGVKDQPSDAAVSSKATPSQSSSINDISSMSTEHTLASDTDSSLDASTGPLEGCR
Mitogen-activated protein kinase 8, sequence (P45983 whole entry): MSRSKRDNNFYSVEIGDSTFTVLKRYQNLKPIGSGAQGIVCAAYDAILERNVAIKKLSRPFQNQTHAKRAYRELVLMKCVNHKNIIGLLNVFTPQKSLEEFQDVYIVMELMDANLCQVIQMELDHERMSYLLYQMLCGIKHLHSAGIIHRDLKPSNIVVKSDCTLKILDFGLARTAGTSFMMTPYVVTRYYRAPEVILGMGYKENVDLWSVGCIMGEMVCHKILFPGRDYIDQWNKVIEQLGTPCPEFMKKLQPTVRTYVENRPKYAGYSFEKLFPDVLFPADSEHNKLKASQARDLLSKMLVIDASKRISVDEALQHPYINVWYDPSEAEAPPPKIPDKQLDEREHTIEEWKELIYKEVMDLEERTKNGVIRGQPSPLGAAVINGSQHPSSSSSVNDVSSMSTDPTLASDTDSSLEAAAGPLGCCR

Consider `CC(C)(C)CNc1ncc(Br)c(Nc2ccccc2C(N)=O)n1`, for which the inhibition in [1] was determined as 99%; in series [2] it was 101%; in [3], 43%; in series [4], 99.6%; in series [5], 78.5%; in [7], 18.7%. The inhibition in series [8] is 93.8%; in series [9], 2.35%; in series [10], 4.96%; in series [11], 36.1%; in [12] it was 60.3%; in series [13], 41.9%. In addition, the inhibition entry in series [14] and in series [15] was “Dose-Dependent Effect” each time. For the same compound, the Ratio IC50 in series [6] was determined as 3.36. In series [16], the half-life was 2.09 h. For the same compound, the Vd in [17] is 20.3 L/kg. In series [18], this compound returned a CL/F of 860 mL/min/kg. Moreover, the outcome in series [19], in [21] and in series [22] was Active. The Activity in series [20] is approximately 100%.

Values taken from ChEMBL document CHEMBL5370528, “Synthesis-accessibility-oriented design of c-Jun N-terminal kinase 1 inhibitor” (Eur J Med Chem, 2023).
